Test system: WiDr cells expressing the human NTS1R
Assay: Cell uptake / internalization assay in WiDr cells
Assay type: cell-based
Conditions: confluent WiDr cells, 1 h, 37 °C, 250 fmol peptide, non-specific (1 μM NT) subtracted, average ± sd of 3 experiments in triplicate; for internalized fraction vs total added activity: acid wash then lysis
Method: Human colorectal adenocarcinoma WiDr cells (LGC Promochem, Teddington, UK) expressing the human NTS1R [52] were cultured in McCoy’s GLUTAMAX-I (Gibco BRL, Life Technologies, Grand Island, NY, USA) supplemented by 10% (v/v) fetal bovine serum (FBS), 100 U/mL penicillin and 100 μg/mL streptomycin (all from Biochrom KG Seromed, Berlin, Germany). Cells were kept in a controlled humidified atmosphere containing 5% CO2 at 37 °C. Passages were performed every 4–5 days using a trypsin/EDTA (0.05%/0.02% w/v) solution. The overall cell association–internalization of ^99mTc-DT1, ^99mTc-DT5 and ^99mTc-DT6 was assessed in confluent WiDr cells. Briefly, the cells were seeded in six-well plates (~1 × 10^6 cells per well) 24 h before the experiment. Each of ^99mTc-DT1, ^99mTc-DT5 and ^99mTc-DT6 (approximately 150,000 cpm, 250 fmol total peptide in 150 μL of 0.5% BSA/PBS) was added alone (total) or in the presence of 1 μM NT (non-specific). Cells were incubated at 37 °C for 1 h and incubation was interrupted by placing the plates on ice, removing the supernatants and rapid rinsing with ice-cold 0.5% BSA/PBS. Cells were then treated 2 × 5 min with acid wash buffer (2 × 0.6 mL, 50 mM glycine buffer, pH 2.8, 0.1 M NaCl) at room temperature and supernatants were collected (membrane-bound fraction). After rinsing with 1 mL chilled 0.5% BSA/PBS, cells were lyzed by treatment with 1 N NaOH (2 × 0.6 mL) and lysates were collected (internalized fraction). Sample radioactivity was measured in the γ-counter (an automated well-type gamma counter with a NaI(Tl) 3′′ crystal, Canberra Packard Auto-Gamma 5000 series instrument) and total cell-associated (internalized + membrane bound) radioactivity was determined vs. total added activity. Results represent the average values ± sd of 3 experiments in triplicate.

Substance	internalized fraction vs total added activity [%]	NTS1R-specific cell uptake (internalized + membrane bound) vs total added activity [%]
N4-Gly-Arg-Arg-Pro-Tyr-Ile-Leu-OH [^99mTc-DT1, ^99mTc-[N4-Gly^7]NT(7-13), ^99mTc-labeled acyclic tetraamine-coupled NT(7-13) analog DT1]	6.9 ± 2.1	10.1 ± 2.3
N4-βAla-Arg-Dab-Pro-Tyr-Tle-Leu-OH [^99mTc-DT6, ^99mTc-[N4-βAla^7,Dab^9,Tle^12]]NT(7-13), ^99mTc-labeled acyclic tetraamine-coupled NT(7-13) analog DT6]	0.8 ± 0.4	1.0 ± 0.4
N4-βAla-Arg-Dab-Pro-Tyr-Ile-Leu-OH [^99mTc-DT5, ^99mTc-[N4-βAla^7,Dab^9]NT(7-13), ^99mTc-labeled acyclic tetraamine-coupled NT(7-13) analog DT5]	3.2 ± 0.3	3.7 ± 0.3
